Source: patent US20160281050A1, “METHODS FOR TREATING A CULTURE OF HAEMATOCOCCUS PLUVIALIS FOR CONTAMINATION USING SALT AND HYDROGEN PEROXIDE” (HELIAE DEVELOPMENT LLC, priority 2015, published 2016)
Read-outs that look alike come from different tables or passages of the source.

What was measured:
[1] = test system: Haematococcus pluvialis (Strain 1) green swimmer cells; conditions: for % Lysis: samples from Bioreactor #2430 48 hours after transfer
Protocol: A series of experiments were conducted to determine if treating a culture of Haematococcus pluvialis with hydrogen peroxide prevents lysis.

chytrids = conditions: for % Chytrids Infection: 0.0105 mL/L every 6 hours
Description: Three 3,000 L open raceway pond bioreactor #'s MP1, MP2, & MP3 with paddlewheel mixing disposed outdoors were inoculated with cultures of green swimmer Haematococcus pluvialis (Strain 2) cells from outdoor reactor #2310 at a dilution ratio of 1 part culture samples to 3 parts reddening media containing 1 ppt salt (NaCl). […] MP2 was not treated with hydrogen peroxide to serve as an untreated control for comparison purposes. […] After hydrogen peroxide treatments began, the percent of the cultures infected with chytrids, percent of carotenoids by UV method, and cell dry weight (g/L) were quantified daily.

## hydrogen peroxide [H2O2]
[1]; Tables 6 and 7, 0.007 mL/L three times per day
  lysis level with the hydrogen peroxide treatments: less than 30%
[1]; samples from Bioreactor #2330, 0.007 mL/L three times per day, 0 h
  % Lysis (±1SD): 8.3 ± 7.6%
[1]; samples from Bioreactor #2330, 0.007 mL/L three times per day, 24 h
  % Lysis (±1SD): 10.0 ± 4.7%
[1]; samples from Bioreactor #2330, 0.007 mL/L three times per day, 48 h
  % Lysis (±1SD): 12.5 ± 3.5%
[1]; samples from Bioreactor #2330, 0.007 mL/L three times per day, 72 h
  % Lysis (±1SD): 0.0 ± 0.0%
[1]; samples from Bioreactor #2330, 0.007 mL/L three times per day, 120 h
  % Lysis (±1SD): 0.8 ± 1.2%
[1]; samples from Bioreactor #2430 24 hours after transfer, 0.007 mL/L three times per day, 0 h
  % Lysis (±1SD): 0.0 ± 0.0%
[1]; samples from Bioreactor #2430 24 hours after transfer, 0.007 mL/L three times per day, 24 h
  % Lysis (±1SD): 7.5 ± 1.2%
[1]; samples from Bioreactor #2430 24 hours after transfer, 0.007 mL/L three times per day, 48 h
  % Lysis (±1SD): 0.0 ± 0.0%
[1]; samples from Bioreactor #2430 24 hours after transfer, 0.007 mL/L three times per day, 96 h
  % Lysis (±1SD): 4.1 ± 1.2%
[1]; 0.007 mL/L three times per day, 0 h
  % Lysis: 3.3 ± 2.9%
[1]; 0.007 mL/L three times per day, 24 h
  % Lysis: 25.0 ± 9.4%
[1]; 0.007 mL/L three times per day, 96 h
  % Lysis: 16.7 ± 4.7%
[1]; vs control cultures, Tables 6 and 7
  reduction of lysis: 60-80%
chytrids; MP1, initial infection 20%, day 7
  % Chytrids Infection: 23.3 ± 5.8%
chytrids; MP1, initial infection 20%, day 8
  % Chytrids Infection: 20.0 ± 5.0%
chytrids; MP1, initial infection 20%, day 9
  % Chytrids Infection: 30.0 ± 10.0%
chytrids; MP1, initial infection 20%, day 10
  % Chytrids Infection: 26.7 ± 2.9%
chytrids; MP1, initial infection 20%, day 11
  % Chytrids Infection: 61.7 ± 24.7%
chytrids; MP1, initial infection 20%, day 12
  % Chytrids Infection: 63.3 ± 16.1%
chytrids; MP1, initial infection 20%, day 13
  % Chytrids Infection: 73.3 ± 7.6%
chytrids; MP1, initial infection 20%, day 14
  % Chytrids Infection: 76.7 ± 17.6%
chytrids; MP3, initial infection less than 5%, day 7
  % Chytrids Infection: 1.7 ± 2.9%
chytrids; MP3, initial infection less than 5%, day 8
  % Chytrids Infection: 0.0 ± 0.0%
chytrids; MP3, initial infection less than 5%, day 9
  % Chytrids Infection: 1.7 ± 2.9%
chytrids; MP3, initial infection less than 5%, day 10
  % Chytrids Infection: 0.0 ± 0.0%
chytrids; MP3, initial infection less than 5%, day 11
  % Chytrids Infection: 0.0 ± 0.0%
chytrids; MP3, initial infection less than 5%, day 12
  % Chytrids Infection: 0.0 ± 0.0%
chytrids; MP3, initial infection less than 5%, day 13
  % Chytrids Infection: 3.3 ± 2.9%
chytrids; MP3, initial infection less than 5%, day 14
  % Chytrids Infection: 0.0 ± 0.0%
chytrids; MP3 culture, below 5% when the treatments started, 1 ppt salt
  chytrids infection level: below 5%
